Tested on: CSE knockout mice
Assay: Inducible persistent AF (AF lasting more than 90 seconds after induction) in CSE knockout mice
Assay type: in vivo
Details: for risk of inducible persistent AF: 200 ug/kg retro-orbitally (i.e. I.V.) for three days
From the text: Homocysteine induced reactive oxygen species reduces the ability of eNOS to properly function in generating nitric oxide (NO).
FIGS. 11 to 12B show mouse Mouse Electrophysiology and AF induction in mice and persistent AF and short run or non-persistent AF.

| SMILES | risk of inducible persistent AF (CSE knock out male mice) | risk of inducible persistent AF (female CSE knock out mice) | persistent AF (FIGS. 26A, 26B, 34A to 35B) (female CSE KO mice) | AF (electro cardio rhythms, FIGS. 25A and 25B) (female CSE KO mice, nitrite treated vs PBS) | incidence of inducible persistent AF (female CSE knockout mice, 165 ug/kg intraperitoneal for 3 days) |
| --- | --- | --- | --- | --- | --- |
| C=CCSSSCC=C [DATS, diallyl trisulfide] | reduced to near wild type levels | no noticeable risk reduction |  |  |  |
| [N]=O [NO, nitric oxide] |  |  | Reduced |  |  |
| O=NO [sodium nitrite] |  |  | dramatically reduces | reduced | decrease |
